Experimental data reported in publication PMC4476171 (Cardiovascular Diabetology, 2015).

Key:
[1] = system: anesthetized male Sprague–Dawley rats; experiment: Blood pressure recorded from indwelling femoral artery catheter; assay type: in vivo, rat; conditions: anesthetized male SD rats, mean ± SE, n = 6-8
Method: (§1) After one week of acclimation, SD rats (10–12 weeks old) were randomly divided into study groups. Rats were anesthetized with thiobutabarbital sodium (Inactin, 110 mg/kg, IP; Sigma-Aldrich, St. Louis, Missouri). Core temperature was maintained between 36 and 37°C throughout the study using a heating pad (Fine Science Tools Inc., Foster City, California). Polyethylene PE-50 tubing was inserted into the left femoral artery to permit intermittent blood sampling, and was also connected to a pressure transducer (NL108T2, Harvard Apparatus, Holliston, Massachusetts) for the measurement of blood pressure (BP) and heart rate (HR). […] Urine volumes were measured and urine was analyzed for electrolytes (Na^+, K^+, and Cl^−) and pH at multiple time points during the study. GFR and RBF were determined by inulin and PAH renal clearance at baseline and the end of the study. […]
(§2) One group of animals received four successive infusions of saline. […] BP, HR, urinary Na^+, K^+, and Cl^− excretion were measured at baseline and at the end of each 20 minute infusion period. GFR and RBF were assessed at baseline and at the end of the last infusion period in each animal (Figure 1).
(§3) Animals were randomized into 8 experimental groups (n = 6 - 8) (Table 1): Group 1. […] Parameters measured are the same as described in Protocol 1 (Figure 2).

[2] = system: anesthetized male Sprague–Dawley rats; experiment: Heart rate recorded from indwelling femoral artery catheter; assay type: in vivo, rat; conditions: anesthetized male SD rats, mean ± SE, n = 6-8
Method: as §1, §2, §3

[3] = system: anesthetized male Sprague–Dawley rats; experiment: Renal excretory function: urine flow rate, urinary Na+, K+, Cl− excretion; assay type: in vivo, rat; conditions: anesthetized male SD rats, Figure 5
Method: as §1, §2
(§4) Animals were randomized into 8 experimental groups (n = 6 - 8) (Table 1): Group 1. […] Parameters measured are the same as described in Protocol 1 (Figure 2). […]

[4] = system: anesthetized male Sprague–Dawley rats; experiment: Urine pH; assay type: in vivo, rat; conditions: anesthetized male SD rats, mean ± SE, n = 6-8
Method: as §1
(§5) Na^+, K^+, and Cl^− concentrations in plasma and urine were measured by a Roche Modular Chemistry System (Roche Diagnostics, Indianapolis, Indiana). Hematocrit was determined using a HESKA I-STAT Hematology Analyzer (HESKA, Fribourg, Switzerland). Urine pH was measured by a pH meter (Fisher Scientific, Pittsburgh, Pennsylvania). Inulin and PAH concentrations in plasma and urine were determined by colorimetric assays. […]

[5] = system: anesthetized male Sprague–Dawley rats; experiment: Glomerular filtration rate by inulin clearance; assay type: in vivo, rat; conditions: anesthetized male SD rats
Method: as §1, §2, §4

[6] = system: anesthetized male Sprague–Dawley rats; experiment: Renal blood flow by para-aminohippurate clearance; assay type: in vivo, rat; conditions: anesthetized male SD rats
Method: as §1, §2, §4

[7] = system: anesthetized male Sprague–Dawley rats; experiment: Plasma K+ concentration; assay type: in vivo, rat; conditions: anesthetized male SD rats, mean ± SE, n = 6-8
Method: as §1, §5

[8] = system: anesthetized male Sprague–Dawley rats; experiment: Hematocrit; assay type: in vivo, rat; conditions: anesthetized male SD rats, mean ± SE, n = 6-8
Method: as §1, §5

[9] = system: anesthetized male Sprague–Dawley rats; experiment: Plasma glucose; assay type: in vivo, rat; conditions: anesthetized male SD rats, mean ± SE, n = 6-8
Method: After one week of acclimation, SD rats (10–12 weeks old) were randomly divided into study groups. Rats were anesthetized with thiobutabarbital sodium (Inactin, 110 mg/kg, IP; Sigma-Aldrich, St. Louis, Missouri). Core temperature was maintained between 36 and 37°C throughout the study using a heating pad (Fine Science Tools Inc., Foster City, California). Polyethylene PE-50 tubing was inserted into the left femoral artery to permit intermittent blood sampling, and was also connected to a pressure transducer (NL108T2, Harvard Apparatus, Holliston, Massachusetts) for the measurement of blood pressure (BP) and heart rate (HR). The signal from the pressure transducer was transmitted to a Ponemah data acquisition system (Data Science International, St. Paul, Minnesota). The left femoral vein was cannulated with PE-50 tubing for solution administration and compound delivery, respectively. […] In addition, 0.9% saline was infused via a Y shape adapter to the left femoral vein at a rate of 0.1 ml/100 g/h. Rats were allowed to stabilize for ~1 hour before initiation of the study. The experimental protocol was initiated with a 20-minute baseline urine collection, followed by administration of either vehicle or test compound at a rate of 0.1 ml/100 g/h for 60-minutes.

[10] = system: anesthetized male Sprague–Dawley rats; experiment: Plasma insulin; assay type: in vivo, rat; conditions: anesthetized male SD rats, mean ± SE, n = 6-8
Method: as §1, with “(HR). The signal from the pressure transducer was transmitted to a Ponemah data acquisition system (Data Science International, St. Paul, Minnesota). The left femoral vein was cannulated with PE-50 tubing for solution administration and compound delivery, respectively. The bladder was catheterized with PE-100 tubing to allow timed collections of urine.” for “(HR).”

DPP4 = target: T1, DPP4 (Rattus norvegicus, UniProt P14740); experiment: Plasma DPP4 activity, continuous fluorometric assay with Gly-Pro-AMC; assay type: in vivo; conditions: anesthetized male SD rats, MK-0626 1 mg/kg iv bolus, substrate Gly-Pro-AMC
T1 construct: from tissue; host or cells: plasma of Sprague-Dawley rats
T1 sequence (P14740 37-767 limits assumed): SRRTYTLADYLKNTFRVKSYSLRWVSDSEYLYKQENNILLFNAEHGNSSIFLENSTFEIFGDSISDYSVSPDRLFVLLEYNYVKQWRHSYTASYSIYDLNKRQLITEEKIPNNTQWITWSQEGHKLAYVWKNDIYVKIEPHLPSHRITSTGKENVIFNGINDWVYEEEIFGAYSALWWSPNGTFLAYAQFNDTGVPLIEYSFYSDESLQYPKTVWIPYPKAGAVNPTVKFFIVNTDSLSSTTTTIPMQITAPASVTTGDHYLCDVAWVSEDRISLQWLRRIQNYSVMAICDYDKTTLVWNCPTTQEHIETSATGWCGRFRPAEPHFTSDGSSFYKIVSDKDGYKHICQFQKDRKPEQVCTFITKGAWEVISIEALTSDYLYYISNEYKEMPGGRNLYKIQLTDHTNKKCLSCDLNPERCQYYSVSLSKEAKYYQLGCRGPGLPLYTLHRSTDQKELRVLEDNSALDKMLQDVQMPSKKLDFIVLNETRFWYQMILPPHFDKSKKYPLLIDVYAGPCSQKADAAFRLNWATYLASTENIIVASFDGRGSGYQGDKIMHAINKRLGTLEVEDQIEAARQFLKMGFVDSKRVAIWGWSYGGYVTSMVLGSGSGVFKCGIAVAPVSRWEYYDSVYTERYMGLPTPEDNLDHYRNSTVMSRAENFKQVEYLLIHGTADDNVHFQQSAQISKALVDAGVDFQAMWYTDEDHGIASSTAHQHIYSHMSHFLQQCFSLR
Method: as §1, §5

[11] = Plasma concentration of active GLP-1 (ELISA); assay type: in vivo, rat; conditions: anesthetized male SD rats
Method: as §1, with “(HR). The signal from the pressure transducer was transmitted to a Ponemah data acquisition system (Data Science International, St. Paul, Minnesota). The left femoral vein was cannulated with PE-50 tubing for solution administration and compound delivery, respectively. The bladder was catheterized with PE-100 tubing to allow timed collections of urine.” for “(HR).”
Na^+, K^+, and Cl^− concentrations in plasma and urine were measured by a Roche Modular Chemistry System (Roche Diagnostics, Indianapolis, Indiana). Hematocrit was determined using a HESKA I-STAT Hematology Analyzer (HESKA, Fribourg, Switzerland). Urine pH was measured by a pH meter (Fisher Scientific, Pittsburgh, Pennsylvania). Inulin and PAH concentrations in plasma and urine were determined by colorimetric assays. […] Plasma DPP4 activity was measured using a continuous fluorometric assay with the substrate Gly-Pro-AMC, which is cleaved by DPP4 to release the fluorescent AMC leaving group.

[12] = group MK-0626 + Saline, baseline = 20 min period prior to IV administration
[13] = MK-0626 1 mg/kg iv bolus followed by saline iv infusion
[14] = MK-0626 1 mg/kg iv bolus followed by saline iv infusion, end of study

Q: What does the source list for `CN(C)C(=O)[C@@H](c1ccc(-c2ccc3ncnn3c2)cc1)[C@H](N)C(=O)N1CCC(F)(F)C1.Cl` [MK-0626]?
A: BP, baseline [1, 12]: 123.5 ± 3.7 mmHg; BP, treatment [1, 13]: 121.9 ± 3.9 mmHg; HR, baseline [2, 12]: 381.2 ± 10.0 bpm; HR, treatment [2, 13]: 380.9 ± 10.3 bpm; effect on diuresis or natriuresis ([3]; MK-0626 1 mg/kg iv bolus alone): no significant effect; urine pH, baseline [4, 12]: 6.07 ± 0.17; urine pH, treatment [4, 13]: 6.25 ± 0.20; effect on GFR ([5]; all animals that received MK-0626 1 mg/kg, not further enhanced by increasing doses of GLP-1, Figure 6b): increased; effect on RBF ([6]; MK-0626 1 mg/kg alone, in the absence of GLP-1 administration): increased; plasma K+, baseline [7, 12]: 4.4 ± 0.14 mmol/L; plasma K+, treatment [7, 14]: 4.2 ± 0.10 mmol/L; Hematocrit, baseline [8, 12]: 40.0 ± 0.8%; Hematocrit, treatment [8, 14]: 38.2 ± 0.6%; Glucose, baseline [9, 12]: 134.9 ± 6.0 mg/dL; Glucose, treatment [9, 14]: 135.8 ± 7.3 mg/dL; Insulin, baseline [10, 12]: 2.5 ± 0.2 ng/mL; Insulin, treatment [10, 14]: 2.7 ± 0.1 ng/mL; Plasma DPP4 activity, inhibition (DPP4): greater than 90%; circulating GLP-1 level, baseline before MK-0626 alone ([11]; group MK-0626 alone, baseline, ELISA, active GLP-1): 3.4 pmpol/L; circulating GLP-1 level after MK-0626 alone ([11]; MK-0626 1 mg/kg iv bolus alone (no exogenous GLP-1), ELISA, active GLP-1): 5.5 pmol/L

Q: For `CC[C@H](C)[C@H](NC(=O)[C@H](Cc1ccccc1)NC(=O)[C@H](CCC(=O)O)NC(=O)[C@H](CCCCN)NC(=O)[C@H](C)NC(=O)[C@H](C)NC(=O)[C@H](CCC(N)=O)NC(=O)CNC(=O)[C@H](CCC(=O)O)NC(=O)[C@H](CC(C)C)NC(=O)[C@H](Cc1ccc(O)cc1)NC(=O)[C@H](CO)NC(=O)[C@H](CO)NC(=O)[C@@H](NC(=O)[C@H](CC(=O)O)NC(=O)[C@H](CO)NC(=O)[C@@H](NC(=O)[C@H](Cc1ccccc1)NC(=O)[C@@H](NC(=O)CNC(=O)[C@H](CCC(=O)O)NC(=O)[C@H](C)NC(=O)[C@@H](N)Cc1c[nH]cn1)[C@@H](C)O)[C@@H](C)O)C(C)C)C(=O)N[C@@H](C)C(=O)N[C@@H](Cc1c[nH]c2ccccc12)C(=O)N[C@@H](CC(C)C)C(=O)N[C@H](C(=O)N[C@@H](CCCCN)C(=O)NCC(=O)N[C@@H](CCCNC(=N)N)C(N)=O)C(C)C` [GLP-1, Glucagon-like peptide 1, reference compound], which “effect on diuresis, natriuresis, chloruresis and kaliuresis” value ([3]; saline bolus followed by GLP-1 iv infusion alone (2.4, 4.8, 9.6 pmol/kg/min)) is on record?
A: modest, albeit significant increase

Q: And the “effect on GFR” value ([5]; GLP-1 iv infusion alone, no dose-dependence, Figure 6a)?
A: modest increase

Q: And the “effect on RBF” value ([6]; GLP-1 alone, only at the highest dose 9.6 pmol/kg/min, Figure 6c)?
A: significant effect

Q: What about the “effect on plasma active GLP-1 levels” value ([11]; exogenous GLP-1 infusion 2.4, 4.8 and 9.6 pmol/kg/min, further enhanced after MK-0626, Figure 4) of the same molecule?
A: step-wise increase
